Assay results: US5223509A, “β-carbolines as cholecystokinin and gastrin antagonists” (priority 1992, dated 1993)
pIC50: −log10 of the molar value. Non-standard residues stand in square brackets, D forms with d. Residues, ends and D or L forms follow the SMILES beside them. *: point of attachment. sY = N[C@@H](Cc1ccc(OS(=O)(=O)O)cc1)C(=O)O; Cbz = O=C(OCc1ccccc1)*

Tests used:
CCK = conditions: recently reported, J. M. Howard et al.; cited from earlier work
proteases = conditions: limits duration of activity; cited from earlier work
CCK receptor (pancreas) = target: T1, CCK receptor (pancreas) (Rattus norvegicus, UniProt P30551); test: CCK Receptor Binding (Pancreas), 125I-CCK-33; design: species or system rat (male Sprague-Dawley); conditions: for pIC50: rat pancreas membranes, 125I-CCK-33, 37° C., 30 minutes; for effect on the 125I-CCK receptor binding assay: added protease inhibitors
T1 construct: The whole pancreas was dissected free of fat tissue and was homogenized; from tissue; host or cells: rat pancreas membranes (male Sprague-Dawley)
T1 sequence (P30551 1-444): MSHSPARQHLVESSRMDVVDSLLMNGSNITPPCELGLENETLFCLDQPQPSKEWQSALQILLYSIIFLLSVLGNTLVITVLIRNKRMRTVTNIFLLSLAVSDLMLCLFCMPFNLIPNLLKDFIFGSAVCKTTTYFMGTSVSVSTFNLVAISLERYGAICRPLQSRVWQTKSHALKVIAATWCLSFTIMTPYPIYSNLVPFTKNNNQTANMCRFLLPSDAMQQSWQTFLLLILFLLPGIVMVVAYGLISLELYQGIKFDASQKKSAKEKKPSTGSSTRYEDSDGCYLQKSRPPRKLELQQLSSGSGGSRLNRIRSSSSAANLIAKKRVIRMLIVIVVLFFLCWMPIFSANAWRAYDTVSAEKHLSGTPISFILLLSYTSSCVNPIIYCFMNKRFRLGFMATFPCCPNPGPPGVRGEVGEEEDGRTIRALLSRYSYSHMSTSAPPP
Procedure: 1. CCK Receptor BindinG (Pancreas)
CCK-33 was radiolabeled with ^125 I-Bolton Hunter reagent (2000 Ci/mmole) as described by Sankara et al. (J. Biol. Chem. 254: 9349-9351, 1979). Receptor bindinG was performed according to Innis and Snyder (Proc. Natl. Acad. Sci. 77: 6917-6921, 1980) with the minor modification of adding the additional protease inhibitors, phenylmethane sulfonyl fluoride and o-phenanthroline. The latter two compounds have no effect on the ^125 I-CCK receptor bindinG assay.
Male Sprague-Dawley rats (200-350 g) were sacrificed by decapitation. The whole pancreas was dissected free of fat tissue and was homogenized in 20 volumes of ice-cold 50 mM, Tris HCl (pH 7.7 at 25° C.) with a Brinkmann Polytron PT 10. The homogenates were centrifuged at 48,000 g for 10 min. Pellets were resuspended in Tris Buffer, centrifuged as above and resuspended in 200 volumes of binding assay buffer (50 mM Tris HCl, pH 7.7 at 25° C., 5 mM dithiothrietol, 0.1 mM bacitracin, 1.2 mM phenylmethane sulfonyl fluoride and 0.5 mM o-phenanthroline). For the binding assay, 25 μl of buffer (for total binding) or unlabeled CCK-8 sulfate to give a final concentration of 1 μM (for nonspecific binding) or the compounds of Formula I (for determination of inhibition of ^125 I CCK binding) and 25 μl of ^125 I-CCK 33 (30,000-40,000 cpm) were added to 450 μl of the membrane suspensions in microfuge tubes. All assays were run in duplicate or triplicate. The reaction mixtures were incubated at 37° C. for 30 minutes and centrifuged in a Beckman Microfuge (4 minutes) immediately after adding 1 ml of ice-cold incubation buffer. The supernatant was aspirated and discarded, pellets were counted with a Beckman gamma 5000. For Scatchard analysis (Ann. N.Y. Acad. Sci. 51: 660, 1949), ^125 I CCK 33 was progressively diluted with increasing concentrations of CCK 33.
1. Effect of The Compounds of Formula I on ^125 I-CCK-33 receptor binding
The preferred compounds of Formula I are those which inhibited specific ^125 I-CCK-33 binding in a concentration dependent manner.
A Ki value (dissociation constant of inhibitor) of the compounds of Formula I was estimated.

[1] = target: T2, CCK receptor (brain, cerebral cortex) (Cavia porcellus, UniProt H0VZC5); test: CCK Receptor Binding (Brain), 125I-CCK-33; design: species or system guinea pig (male Hartley); conditions: guinea pig cerebral cortex, 25° C., 2 hours
T2 construct: Cerebral cortex was dissected and used as a receptor source; from tissue; host or cells: guinea pig cerebral cortex membranes (male Hartley)
T2 sequence (H0VZC5 1-426): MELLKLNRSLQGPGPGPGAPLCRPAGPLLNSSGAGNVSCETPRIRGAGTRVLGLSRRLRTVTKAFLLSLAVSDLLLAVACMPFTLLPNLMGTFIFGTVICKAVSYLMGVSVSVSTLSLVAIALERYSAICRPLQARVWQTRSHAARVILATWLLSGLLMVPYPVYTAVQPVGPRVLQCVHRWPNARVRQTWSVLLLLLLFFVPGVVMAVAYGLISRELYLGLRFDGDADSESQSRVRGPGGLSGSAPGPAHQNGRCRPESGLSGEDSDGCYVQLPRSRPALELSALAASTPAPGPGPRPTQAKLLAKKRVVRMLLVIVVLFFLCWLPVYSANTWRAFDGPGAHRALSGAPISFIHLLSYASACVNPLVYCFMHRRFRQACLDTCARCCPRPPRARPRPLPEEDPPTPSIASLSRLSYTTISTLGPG
Procedure: 2. CCK Receptor Binding (Brain)
CCK 33 was radiolabeled and the binding was performed according to the description for the pancreas method with modifications according to Saito et al., J. Neurochem. 37:483-490, 1981.
Male Hartley guinea pigs (300-500 g) were sacrificed by decapitation and the brains were removed and placed in ice-cold 50 mM, Tris HCl plus 7.58 g/1 Trizma-7.4 (pH 7.4 at 25° C.). Cerebral cortex was dissected and used as a receptor source. Each gram of fresh guinea pig brain tissue was homogenized in 10 ml of Tris/Trizma buffer with a Brinkman polytron PT-10. The homogenates were centrifuged at 42,000 g for 15 minutes. Pellets were resuspended in Tris Buffer, centrifuged as above and resuspended in 200 volumes of binding assay buffer (10 mM N-2 -hydroxyethyl-piperazine-N'-2-ethane sulfonic acid (HEPES), 5 mM MgCl2, 0.25 mg/ml bacitracin, 1 mM ethylene glycol-bis-(β-aminoethylether-N,N'-tetraacetic acid) (EGTA), and 0.4% bovine serum albumin (BSA)). For the binding assay, 25 μl of buffer (for total binding) or unlabeled CCK-8 sulfate to give a final concentration of 1 μm (for nonspecific binding) or the compounds of Formula I (for determination of inhibition of ^125 I CCK binding) and 25 μl of ^125 I-CCK-33 (30,000-40,000 cpm) were added to 450 μl of the membrane suspensions in microfuge tubes. All assays were run in duplicate or triplicate. The reaction mixtures were incubated at 25° C. for 2 hours and centrifuged in a Beckman Microfuge (4 minutes) immediately after adding 1 ml of ice cold incubation buffer. The supernatant was aspirated and discarded, pellets were counted with a Beckman gamma 5000.

[2] = target: T3, gastrin receptor (gastric glands) (Cavia porcellus, UniProt H0VZC5); test: Gastrin Receptor Binding in Guinea Pig Gastric Glands, 125I-gastrin; design: species or system guinea pig (male Hartley); conditions: 25° C., 30 minutes
T3 construct: from tissue; host or cells: guinea pig gastric mucosal glands (male Hartley)
T3 sequence (H0VZC5 1-426): T2 sequence (H0VZC5 1-426)
Procedure: Gastrin antagonist activity of compounds of Formula I was determined using the following assay.
Gastrin Receptor Binding in Guinea Pig Gastric Glands Preparation of guinea pig gastric mucosal glands
Guinea pig gastric mucosal glands were prepared by the procedure of Berglingh and Obrink Acta Physiol. Scand. 96: 150 (1976) with a slight modification according to Praissman et al. C. J. Receptor Res. 3: (1983). Gastric mucosa from guinea pigs ( 300-500 g body weight, male Hartley) were washed thoroughly and minced with fine scissors in standard buffer consisting of the following: 130 mM NaCl, 12 mM NaHCo3, 3 mM NaH2 PO4, 3 mM Na2 HPO4, 3 mM K2 HPO4, 2 mM MgSO4, 1 mM CaCl2, 5 mM glucose and 4 mM L-glutamine, 25 mM HEPES at pH 7.4. The minced tissues were washed and then incubated in a 37° C. shaker bath for 40 minutes with the buffer containing 0.1% collagenase and 0.1% BSA and bubbled with 95% o2 and 5% CO2. The tissues were passed twice through a 5 ml glass syringe to liberate the gastric glands, and then filtered through 200 mesh nylon. The filtered glands were centrifuged at 270 g for 5 minutes and washed twice by resuspension and centrifugation.
The washed guinea pig gastric glands prepared as above were resuspended in 25 ml of standard buffer containing 0.25 mg/ml of bacitracin. For binding studies, to 220 μl of gastric glands in triplicate tubes, 10 μl of buffer (for total binding) or gastrin (1 μM final concentration, for nonspecific binding) or test compound and 10 μl of ^125 I-gastrin (NEN, 2200 Ci/mmole, 25 pM final) or ^3 H pentagastrin (NEN 22 Ci/mmole, 1 nM final) were added. The tubes were aerated with 95% O2 and 5% CO2 and capped. The reaction mixtures after incubation at 25° C. for 30 minutes were filtered under reduced pressure on glass G/F B filters (Whatman) and immediately washed further with 4×4 ml of standard buffer containing 0.1% BSA. The radioactivity on the filters was measured using a Beckman gamma 5500 for ^125 I-gastrin or liquid scintillation counting for ^3 H-pentagastrin.

| SMILES | pIC50 (CCK receptor (pancreas)) | pIC50 [1] | pIC50 [2] | other results |
| --- | --- | --- | --- | --- |
| CSCC[C@H](NC(=O)[C@H](Cc1ccc(OS(=O)(=O)O)cc1)NC(=O)OCc1ccccc1)C(=O)NCC(=O)N[C@@H](Cc1c[nH]c2ccccc12)C(=O)N[C@@H](CCSC)C(=O)N[C@@H](CC(=O)O)C(N)=O [Cbz-Tyr(SO3 H)-Met-Gly-Trp-Met-Asp-NH2] (Cbz-[sY]MGWMD-NH2) |  |  |  | CCK agonist/antagonist character (CCK): partial agonist; degradation by proteases (proteases): liable to degradation by proteases |
| Nc1cc2c(cn1)[nH]c1ccccc12 [Example 2, 3-Amino-9H-pyrido(3,4-b)indole] | < 4.00 | < 4.00 | < 4.00 |  |
| O=C(Nc1cc2c(cn1)[nH]c1ccccc12)c1ccc(Cl)cc1 [Example 3, 4-Chloro-N-9H-pyrido(3.4-b)indol-3-yl-benzamide] | 5.46 |  |  |  |
| O=C(Nc1ccc(Cl)cc1)Nc1cc2c(cn1)[nH]c1ccccc12 [Example 4, N-(4-Chlorophenyl)-N^1 9-H-pyrido(3,4-b)indol-3-yl-urea] | 7.07 |  |  |  |
| O=C(Nc1cc2c(cn1)[nH]c1ccccc12)c1cccs1 [Example 5, N-9H-Pyrido(3,4-b)indol-3-yl 2 thiophene Carboxamide] | 5.01 | ~3.89 | < 4.00 |  |
| Cn1c(C(=O)Nc2cc3c(cn2)[nH]c2ccccc23)cc2ccccc21 [Example 6, N-9H-Pyrido(3,4-b)indol-3-yl-1-methyl-1H-indole-2-carboxamide] | 6.15 | < 4.00 | < 4.00 |  |
| O=C(Cc1c[nH]c2ccccc12)Nc1cc2c(cn1)[nH]c1ccccc12 [Example 7, N-9H-Pyrido(3,4-b)indol-3-yl-1H-indole 3-acetamide] | 7.62 |  |  |  |
| O=C(Nc1cc2c(cn1)[nH]c1ccccc12)c1ccccc1 [Example 8, N-9H-Pyrido(3,4-b)indol-3-yl benzamide] | 5.15 | 3.65 | < 4.00 |  |
| O=C(Cc1ccccc1)Nc1cc2c(cn1)[nH]c1ccccc12 [Example 9, N-9H-Pyrido(3,4-b)indol-3-yl benzene Acetamide] | 7.40 | 4.47 | 4.85 |  |
| O=C(CCc1ccccc1)Nc1cc2c(cn1)[nH]c1ccccc12 [Example 10, N-9H-Pyrido(3,4-b)indol-3-yl benzene Propanamide] | 6.48 |  |  |  |
| c1cnc2c(c1)ccc1cccnc12 [o-phenanthroline, reference compound] |  |  |  | effect on the 125I-CCK receptor binding assay (CCK receptor (pancreas)): no effect |
| O=S(=O)(F)Cc1ccccc1 [phenylmethane sulfonyl fluoride, reference compound] |  |  |  | effect on the 125I-CCK receptor binding assay (CCK receptor (pancreas)): no effect |
